What is called IC50 is the midpoint of a concentration-inhibition curve.

The target in this test is T1, Interleukin-1 receptor-associated kinase 4 (Homo sapiens, UniProt Q9NWZ3).
T1 sequence (Q9NWZ3 whole entry): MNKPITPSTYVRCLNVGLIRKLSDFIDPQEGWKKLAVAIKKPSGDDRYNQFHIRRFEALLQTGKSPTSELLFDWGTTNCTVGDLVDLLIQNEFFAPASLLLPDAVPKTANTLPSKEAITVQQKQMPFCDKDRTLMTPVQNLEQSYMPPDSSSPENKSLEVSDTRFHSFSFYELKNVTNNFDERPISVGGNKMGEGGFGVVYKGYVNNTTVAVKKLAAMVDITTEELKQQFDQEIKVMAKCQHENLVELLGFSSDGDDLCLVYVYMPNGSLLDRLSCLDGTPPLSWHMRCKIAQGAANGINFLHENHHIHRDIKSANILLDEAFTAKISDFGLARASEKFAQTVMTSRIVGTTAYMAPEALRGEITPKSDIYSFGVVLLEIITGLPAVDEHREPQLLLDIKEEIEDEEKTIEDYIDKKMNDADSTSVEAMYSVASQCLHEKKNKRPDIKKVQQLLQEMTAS
Put plainly: Inhibition of recombinant human full-length His-tagged IRAK4 expressed in baculovirus infected insect cells using KKARFSRFAGSSPSQSSMVAR as substrate preincubated for 15 mins followed by substrate addition and measured after 2 hrs by LC-MS/MS analysis.
With `COc1cc2nn([C@H]3CC[C@@]4(CC3)CC(=O)N(C)C4)cc2cc1C(=O)Nc1cnc2cccnn12`, the IC50 was 0.2 nM.

With `COc1cc2nn([C@H]3CC[C@H](N(C)C(=O)[C@@H](C)O)CC3)cc2cc1C(=O)Nc1cnc2cccnn12`, the 50% inhibitory concentration (IC50) worked out at 0.2 nM. For the compound `CO[C@H]1C[C@H](Oc2cc3nn(C4CCC5(CC4)CN(C(C)=O)C5)cc3cc2C(=O)Nc2cnc3cccnn23)C1`, the IC50 is below 0.03 nM.

The values are drawn from ChEMBL document CHEMBL5137104, “Novel IRAK4 Inhibitors for Treating Asthma” (ACS Med Chem Lett, 2022).
